This note sets out measurements from US20250281464A1, “TREATMENT OF PATHOGENIC NEISSERIA SP. INFECTION WITH TRIAZOLE ANTIFUNGAL AGENTS” (Virginia Tech Intellectual Properties, Inc., priority 2022, published 2025).

A value given as a limit tells only on which side of the number the result lay.

Assay [1] deals with N. gonorrhoeae. Briefly: Female mouse model of N. gonorrhoeae genital tract infection. To be noted: N. gonorrhoeae FA1090, low dose 100 mg/kg orally. In kind it is in vivo. How it is done: FIG. 1—Efficacy of Ravuconazole one oral dose in a mouse model against N. gonorrhoeae FA1090. N. gonorrhoeae burden (average±standard deviation log 10 CFU/mL) after treatment with a single dose of ravuconazole (40 mg/kg) (fosravuconazole/E-1224 Prodrug) via oral gavage. As a negative control, mice (n=8) were administered the vehicle (water), As a positive control, a group of mice received a single intraperitoneal dose of ceftriaxone (15 mg/kg in water). Vaginal swabs were collected daily and cultured to determine the number of viable bacteria. The limit of detection was 10 CFU/mL. The data were analyzed via a two-way ANOVA followed by Dunnett's test for multiple comparisons. Asterisks indicate a statistical significant difference between mice treated with either ravuconazole or ceftriaxone as compared to the vehicle-treated mice.
FIG. 2A-2C—Efficacy of Ravuconazole one oral dose in a mouse model against drug-resistant strains. […] N. gonorrhoeae burden (average±standard deviation log 10 CFU/mL) after treatment with a single dose of ravuconazole (160 mg/kg) (fosravuconazole/E-1224 Prodrug) via oral gavage. […] The data were analyzed via a two-way ANOVA followed by Dunnett's test for multiple comparisons. […]
FIG. 3—Efficacy of 3 doses of isavuconazole against the vaginal burden of N. gonorrhoeae. […] The data were analyzed via a two-way ANOVA followed by Dunnett's test for multiple comparisons. […]

Assay [2] relates to L. crispatus. The assay is described as follows: MIC against commensal vaginal Lactobacillus strains. In kind it is cell-based, Lactobacillus crispatus. The following applies: for MIC: Lactobacillus crispatus.
Assay [3] concerns N. gonorrhoeae. The assay is described as follows: Post-antibiotic effect (PAE) against N. gonorrhoeae. The class given is cell-based, Neisseria gonorrhoeae. To be noted: 1 h exposure at 10×MIC. An excerpt: Determining the PAE of a new antimicrobial is an important step for dosing and has clinical importance.

Turning to `C[C@@H](c1nc(-c2ccc(C#N)cc2)cs1)[C@](O)(Cn1cncn1)c1cc(F)ccc1F` [Isavuconazole], the “infected mice in which the infection was cleared” value was 50% in assay [1] (second day) and 100% in assay [1] (third day of treatment). Besides, the MIC in assay [2] (L. crispatus HM-103), in assay [2] (L. crispatus HM-371) and in assay [2] (L. crispatus HM-638) was over 256 µg/mL throughout. Further, the “MIC Range” value in assay [2] (Table 6, L. crispatus (3 strains)) was at least 256 µg/mL. Moreover, the PAE in assay [3] (strain FA 1090), in assay [3] (strain WHO P) and in assay [3] (strain WHO Y) was 10 h throughout.
